Experimental data taken from patent US7592345B2, “Piperazine and [1,4]diazepan derivatives as NK antagonists” (Hoffmann-La Roche Inc., priority 2007, dated 2009).
pKi: −log10 of the molar value.

Target: T1, recombinant human NK3 receptor (Homo sapiens, UniProt P29371)
T1 construct: expressed in transfected cells; host or cells: HEK293 cells (transient expression), membranes
T1 sequence (P29371 1-465): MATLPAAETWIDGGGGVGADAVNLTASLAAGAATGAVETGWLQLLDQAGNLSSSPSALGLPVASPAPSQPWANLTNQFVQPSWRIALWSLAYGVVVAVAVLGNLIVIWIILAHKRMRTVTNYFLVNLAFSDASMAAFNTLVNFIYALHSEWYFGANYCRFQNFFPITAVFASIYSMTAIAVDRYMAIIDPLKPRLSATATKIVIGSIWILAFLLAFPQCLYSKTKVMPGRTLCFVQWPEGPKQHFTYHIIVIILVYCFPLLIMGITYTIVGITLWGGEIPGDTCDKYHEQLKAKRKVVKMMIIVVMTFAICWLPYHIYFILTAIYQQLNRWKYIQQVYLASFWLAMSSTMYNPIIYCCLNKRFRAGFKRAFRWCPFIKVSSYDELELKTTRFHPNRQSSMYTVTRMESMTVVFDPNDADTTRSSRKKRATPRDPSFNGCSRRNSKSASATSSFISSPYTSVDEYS
Experiment: [3H]SR142801 competition binding assay
Conditions: [3H]SR142801, membranes from HEK293 cells transiently expressing recombinant human NK3 receptor; read-out: hNK3 Ki
In short: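 Membranes from HEK293 cells transiently expressing human NK3 were incubated 75 min at RT with [3H]SR142801 at its KD and inhibitor (0.0003-10 μM) in Tris-HCl pH 7.4/MnCl2/phosphoramidon/BSA. Nonspecific binding used 10 μM SB222200. Ki from Hill-fitted IC50 via Cheng-Prusoff, duplicate determinations.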

| pKi | SMILES |
| --- | --- |
| 8.00 | CN(Cc1ccc(Cl)c(Cl)c1)C(=O)C(C)(CCN1CCCN(S(C)(=O)=O)CC1)c1ccc(Cl)c(Cl)c1 (centres unmarked) [Example 113, N-(3,4-Dichloro-benzyl)-2-(3,4-dichloro-phenyl)-4-(4-methanesulfonyl-[1,4]diazepan-1-yl)-2,N-dimethyl-butyramide] |
| 6.02 | CC(CCN1CCCN(S(C)(=O)=O)CC1)(C(=O)NCc1ccc(C(F)(F)F)nc1)c1ccc(Cl)c(Cl)c1 (centres unmarked) [Example 126, 2-(3,4-Dichloro-phenyl)-4-(4-methanesulfonyl-[1,4]diazepan-1-yl)-2-methyl-N-(6-trifluoromethyl-pyridin-3-ylmethyl)-butyramide] |
| 7.79 | CN(Cc1ccc(C(F)(F)F)c(F)c1)C(=O)C(C)(CCN1CCCN(S(C)(=O)=O)CC1)c1ccc(Cl)c(Cl)c1 (centres unmarked) [Example 112, 2-(3,4-Dichloro-phenyl)-N-(3-fluoro-4-trifluoromethyl-benzyl)-4-(4-methanesulfonyl-[1,4]diazepan-1-yl)-2,N-dimethyl-butyramide] |
| 6.48 | CC(CCN1CCN(S(C)(=O)=O)CC1)(C(=O)N[C@@H](CO)c1ccccc1)c1ccc(Cl)c(Cl)c1 (single isomer, unassigned) [Example 129, (S or R)-2-(3,4-Dichloro-phenyl)-N-((R)-2-hydroxy-1-phenyl-ethyl)-4-(4-methanesulfonyl-piperazin-1-yl)-2-methyl-butyramide] |
| 6.83 | CC(CCN1CCN(S(C)(=O)=O)CC1)(C(=O)N[C@@H](CO)c1ccc(F)cc1)c1ccc(Cl)c(Cl)c1 (stereo partly drawn) [Example 132, 2-(3,4-Dichloro-phenyl)-N-[(R)-1-(4-fluoro-phenyl)-2-hydroxy-ethyl]-4-(4-methanesulfonyl-piperazin-1-yl)-2-methyl-butyramide] |
| 6.54 | CN(C)c1ccc(CNC(=O)C(C)(CCN2CCCN(S(C)(=O)=O)CC2)c2ccc(Cl)c(Cl)c2)cc1 (centres unmarked) [Example 110, 2-(3,4-Dichloro-phenyl)-N-(4-dimethylamino-benzyl)-4-(4-methanesulfonyl-[1,4]diazepan-1-yl)-2-methyl-butyramide] |

Continued, compound first:

| SMILES | pKi |
| --- | --- |
| C[C@H]1CN(CCC(C)(C(=O)N(C)Cc2ccc(Cl)c(C(F)(F)F)c2)c2ccc(Cl)c(Cl)c2)CCN1S(C)(=O)=O (stereo partly drawn) [Example 69, N-(4-Chloro-3-trifluoromethyl-benzyl)-2-(3,4-dichloro-phenyl)-4-((S)-4-methanesulfonyl-3-methyl-piperazin-1-yl)-2,N-dimethyl-butyramide] | 7.94 |
| CC(CCN1CCN(S(C)(=O)=O)CC1)(C(=O)NCc1cccc(OC(F)F)c1)c1ccc(Cl)c(Cl)c1 (centres unmarked) [Example 11, 2-(3,4-Dichloro-phenyl)-N-(3-difluoromethoxy-benzyl)-4-(4-methanesulfonyl-piperazin-1-yl)-2-methyl-butyramide] | 6.38 |
| C[C@H]1CN(CCC(C)(C(=O)NCc2cccc(OC(F)(F)F)c2)c2ccc(Cl)c(Cl)c2)CCN1S(C)(=O)=O (stereo partly drawn) [Example 81, 2-(3,4-Dichloro-phenyl)-4-((S)-4-methanesulfonyl-3-methyl-piperazin-1-yl)-2-methyl-N-(3-trifluoromethoxy-benzyl)-butyramide] | 6.90 |
| C[C@@H]1CN(CCC(C)(C(=O)N(C)Cc2cccc(Cl)c2)c2ccc(Cl)c(Cl)c2)CCN1S(C)(=O)=O (stereo partly drawn) [Example 59, N-(3-Chloro-benzyl)-2-(3,4-dichloro-phenyl)-4-((R)-4-methanesulfonyl-3-methyl-piperazin-1-yl)-2,N-dimethyl-butyramide] | 6.99 |
| CC(CCN1CCCN(S(C)(=O)=O)CC1)(C(=O)NCc1ccc(C(F)(F)F)c(F)c1)c1ccc(Cl)c(Cl)c1 (centres unmarked) [Example 95, 2-(3,4-Dichloro-phenyl)-N-(3-fluoro-4-trifluoromethyl-benzyl)-4-(4-methanesulfonyl-[1,4]diazepan-1-yl)-2-methyl-butyramide] | 7.19 |
| C[C@H]1CN(CCC(C)(C(=O)NCc2cc(C(F)(F)F)cc(C(F)(F)F)c2)c2ccc(Cl)c(Cl)c2)CCN1S(C)(=O)=O (stereo partly drawn) [Example 65, N-(3,5-Bis-trifluoromethyl-benzyl)-2-(3,4-dichloro-phenyl)-4-((S)-4-methanesulfonyl-3-methyl-piperazin-1-yl)-2-methyl-butyramide] | 7.07 |
| Cc1ccc(CN(C)C(=O)C(C)(CCN2CCN(S(C)(=O)=O)[C@@H](C)C2)c2ccc(Cl)c(Cl)c2)cc1 (stereo partly drawn) [Example 67, 2-(3,4-Dichloro-phenyl)-4-((S)-4-methanesulfonyl-3-methyl-piperazin-1-yl)-2,N-dimethyl-N-(4-methyl-benzyl)-butyramide] | 7.00 |
| CN(Cc1ccc(C(F)(F)F)cc1)C(=O)C(C)(CCN1CCN(S(C)(=O)=O)CC1)c1ccc(Cl)c(Cl)c1 (centres unmarked) [Example 28, 2-(3,4-Dichloro-phenyl)-4-(4-methanesulfonyl-piperazin-1-yl)-2,N-dimethyl-N-(4-trifluoromethyl-benzyl)-butyramide] | 7.35 |
| C[C@H]1CN(CCC(C)(C(=O)N(C)Cc2ccc(C(F)(F)F)cc2)c2ccc(Cl)c(Cl)c2)CCN1S(C)(=O)=O (stereo partly drawn) [Example 85, 2-(3,4-Dichloro-phenyl)-4-((S)-4-methanesulfonyl-3-methyl-piperazin-1-yl)-2,N-dimethyl-N-(4-trifluoromethyl-benzyl)-butyramide] | 7.56 |
| CN(Cc1cccc(Cl)c1)C(=O)C(C)(CCN1CCCN(S(C)(=O)=O)CC1)c1ccc(Cl)c(Cl)c1 (centres unmarked) [Example 103, N-(3-Chloro-benzyl)-2-(3,4-dichloro-phenyl)-4-(4-methanesulfonyl-[1,4]diazepan-1-yl)-2,N-dimethyl-butyramide] | 7.38 |
| COc1ccc(C(NC(=O)C(C)(CCN2CCCN(S(C)(=O)=O)CC2)c2ccc(Cl)c(Cl)c2)C2CC2)cc1 (centres unmarked) [Example 105, N-[Cyclopropyl-(4-methoxy-phenyl)-methyl]-2-(3,4-dichloro-phenyl)-4-(4-methanesulfonyl-[1,4]diazepan-1-yl)-2-methyl-butyramide] | 6.87 |
| COc1ccc(CN(C)C(=O)C(C)(CCN2CCCN(S(C)(=O)=O)CC2)c2ccc(Cl)c(Cl)c2)cc1F (centres unmarked) [Example 104, 2-(3,4-Dichloro-phenyl)-N-(3-fluoro-4-methoxy-benzyl)-4-(4-methanesulfonyl-[1,4]diazepan-1-yl)-2,N-dimethyl-butyramide] | 7.22 |

System: not given
Experiment: not given
Conditions: phase II trial; cited from earlier work

| SMILES | activity in the treatment of negative symptoms | activity on positive symptoms of schizophrenia |
| --- | --- | --- |
| CC(=O)N(C)C1(c2ccccc2)CCN(CCC[C@]2(c3ccc(Cl)c(Cl)c3)CCCN(C(=O)c3ccccc3)C2)CC1 [SR 142,801, Osanetant] | inactive | active |
